Source: patent US9365502B2, “Neuroactive substituted cyclopenta[b]phenanthrenes as modulators for GABA type-A receptors” (priority 2013, dated 2016)

Structure (SMILES) | melting point
C[C@]12C[C@H]3CC[C@H]4C[C@@H](O)CC[C@H]4[C@@H]3C[C@@H]1CCC2=O | 175 to 177 °C
C[C@@]12CC[C@H](O)C[C@H]1CC[C@@H]1C[C@@]3(C)[C@@H](CC[C@@]34CO4)C[C@H]12 | 138 to 140 °C
C[C@]12C[C@H]3CC[C@@H]4C[C@@H](O)CC[C@@]4(C)[C@@H]3C[C@@H]1CC[C@@H]2C#N | 145 to 147 °C
C[C@@]12C[C@@H]3CC[C@H]4C[C@H](O)CC[C@@H]4[C@H]3C[C@H]1CC[C@]21CO1 | 165 to 167 °C
C[C@@]12C[C@@H]3CC[C@H]4C[C@H](O)CC[C@@H]4[C@H]3C[C@H]1CC[C@H]2C#N | 163 to 165 °C
CC(=O)[C@@H]1CC[C@@H]2C[C@H]3[C@@H](CC[C@H]4C[C@H](O)CC[C@@H]43)C[C@]21C | 128 to 130 °C
C[C@@]12CC[C@H](O)C[C@H]1CC[C@@H]1C[C@]3(C)C(C#N)=CC[C@H]3C[C@H]12 (stereo in doubt) | 170 to 172 °C
C[C@@]12C[C@@H]3CC[C@@H]4C[C@H](O)CC[C@@H]4[C@H]3C[C@H]1CCC2=O (stereo in doubt) | 174 to 176 °C
